The source of these data is PubChem BioAssay (NCI).

Among the test systems are A549 NSCLC; EKVX NSCLC; HS 578T breast; M14 melanoma; MOLT-4 leukemia; NCI-H522 lung; OVCAR-4 ovarian; OVCAR-8 ovarian; SK-MEL-2 melanoma; SK-OV-3 ovarian.
Test in all cases: NCI anticancer screen, dose series, 48 h

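Results reflect a 48-hour exposure of cells in 96-well plates to compound at five concentrations. Here, GI50 denotes the concentration required for 50% inhibition of growth. TGI is the concentration that stops growth completely.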

For `COc1ccc(OC)c2c(=S)c3ccccc3[nH]c12`, the TGI in the assay on A549 NSCLC was above 100 µM; in the assay on EKVX NSCLC it was above 100 µM; in the assay on HS 578T breast, above 100 µM; in the assay with M14 melanoma, above 100 µM; in the assay with MOLT-4 leukemia, 98.4 µM; in the assay on NCI-H522 lung, above 100 µM. Besides, the TGI with OVCAR-4 ovarian, with OVCAR-8 ovarian, in the assay with SK-MEL-2 melanoma and in the assay with SK-OV-3 ovarian was above 100 µM in each case.
With `NS(=O)(=O)c1ccc(NC(=O)c2cccc3cc4ccccc4nc23)cc1`, the TGI in the assay on A549 NSCLC was above 100 µM; in the assay with EKVX NSCLC, above 100 µM; in the assay with HS 578T breast, above 100 µM; in the assay on M14 melanoma it was above 100 µM; in the assay with MOLT-4 leukemia, 68.4 µM; in the assay on NCI-H522 lung it was above 100 µM. The TGI in the assay with OVCAR-4 ovarian, in the assay on OVCAR-8 ovarian, in the assay on SK-MEL-2 melanoma and with SK-OV-3 ovarian was above 100 µM each time.
`COC1=C(Br)C(=O)C2=C(C1=O)C1C3=C(C(=O)C=CC3=O)C2c2ccccc21` (stereo unspecified): the GI50 with A549 NSCLC was 42.1 µM; with EKVX NSCLC, 5.81 µM; with HS 578T breast it was 4.82 µM; with M14 melanoma, 33.4 µM; in the assay with MOLT-4 leukemia it was 4.99 µM; in the assay on NCI-H522 lung it was 3.26 µM. In addition, the GI50 with OVCAR-4 ovarian was 13.7 µM; in the assay on OVCAR-8 ovarian, 24.3 µM; with SK-MEL-2 melanoma, 20.6 µM; in the assay with SK-OV-3 ovarian, 45.6 µM. Moreover, the TGI is above 100 µM with A549 NSCLC; 22.2 µM in the assay on EKVX NSCLC; above 100 µM in the assay on HS 578T breast; 80.4 µM in the assay with M14 melanoma; above 100 µM with MOLT-4 leukemia; 14.4 µM with NCI-H522 lung. The TGI in the assay with OVCAR-4 ovarian was 63.7 µM; in the assay with OVCAR-8 ovarian, above 100 µM; in the assay with SK-MEL-2 melanoma it was 61.2 µM; in the assay with SK-OV-3 ovarian, above 100 µM.
On to `CS(=O)(=O)OCCN(CCOS(C)(=O)=O)c1ccc(C=O)cc1`, for which the TGI with A549 NSCLC was 35.8 µM; with EKVX NSCLC, 25.4 µM; with HS 578T breast, 58 µM; with M14 melanoma it was 30.4 µM; with MOLT-4 leukemia it was 4.84 µM; with NCI-H522 lung it was 0.553 µM. Moreover, the TGI in the assay with OVCAR-4 ovarian was determined as 37.6 µM; with OVCAR-8 ovarian, 32.4 µM; in the assay with SK-MEL-2 melanoma, 42.8 µM; in the assay with SK-OV-3 ovarian it was 7.18 µM.
As to `Cc1cc(N(CCCl)CCCl)ccc1/C=N/NC(=O)Cc1cc(=O)oc2cc(O)ccc12`, the TGI in the assay on A549 NSCLC turned out to be 42.2 µM; in the assay with EKVX NSCLC, 82.9 µM; in the assay on HS 578T breast, 56.3 µM; in the assay with M14 melanoma, 35.1 µM; in the assay on MOLT-4 leukemia, 50.4 µM; in the assay on NCI-H522 lung it was 31.5 µM. Further, the TGI with OVCAR-4 ovarian, in the assay on OVCAR-8 ovarian and with SK-MEL-2 melanoma was above 100 µM throughout.
Take `CN(C)CCCn1c2nc(=O)[nH]c(=O)c-2nc2cc(Cl)c(Cl)cc21`: the GI50 in the assay on A549 NSCLC was 4.02 µM; in the assay with EKVX NSCLC it was 13.8 µM; with HS 578T breast, 30.9 µM; in the assay on M14 melanoma it was 3.68 µM; in the assay on MOLT-4 leukemia, 4.35 µM; in the assay with NCI-H522 lung it was 2.1 µM. Moreover, the GI50 in the assay with OVCAR-4 ovarian is 6.3 µM; with OVCAR-8 ovarian it was 3.16 µM; in the assay with SK-MEL-2 melanoma, 4.81 µM; in the assay with SK-OV-3 ovarian, 22.3 µM. In addition, the TGI is 16.3 µM with A549 NSCLC; 28.5 µM in the assay on EKVX NSCLC; above 100 µM in the assay with HS 578T breast; 13 µM with M14 melanoma; 22.8 µM in the assay on MOLT-4 leukemia; 4.23 µM with NCI-H522 lung. Moreover, the TGI in the assay on OVCAR-4 ovarian was found to be 18.8 µM; in the assay with OVCAR-8 ovarian it was 10.6 µM; in the assay on SK-MEL-2 melanoma it was 16.1 µM; with SK-OV-3 ovarian it was 65.6 µM.
Regarding `COc1ccccc1/C=C/C(=O)/C=C/c1ccccc1OC`, the GI50 in the assay with A549 NSCLC is 2.35 µM; in the assay with EKVX NSCLC, 2.42 µM; in the assay with HS 578T breast, 3.4 µM; with M14 melanoma, 1.65 µM; with MOLT-4 leukemia, 2.4 µM; in the assay with NCI-H522 lung, 1.67 µM. Also, the GI50 with OVCAR-4 ovarian was 1.51 µM; in the assay on OVCAR-8 ovarian, 2.58 µM; in the assay on SK-MEL-2 melanoma, 2.29 µM; in the assay on SK-OV-3 ovarian, 2.94 µM. In addition, the TGI with A549 NSCLC came to 7 µM; in the assay on EKVX NSCLC, 6.22 µM; with HS 578T breast, 39.2 µM; with M14 melanoma, 3.68 µM; in the assay on MOLT-4 leukemia, 9.06 µM; in the assay on NCI-H522 lung, 3.26 µM. Further, the TGI with OVCAR-4 ovarian was determined as 16.6 µM; with OVCAR-8 ovarian it was 8.88 µM; in the assay with SK-MEL-2 melanoma, 4.95 µM; with SK-OV-3 ovarian it was 8.66 µM.
In the case of `N#Cc1ccc2c(c1)C(=O)c1c-2n(CCCN)c(=O)c2cc([N+](=O)[O-])ccc12`, the GI50 in the assay on A549 NSCLC is 0.223 µM; with EKVX NSCLC, 0.537 µM; in the assay with HS 578T breast, 1.41 µM; with M14 melanoma, 0.467 µM; in the assay on MOLT-4 leukemia, 0.0492 µM; in the assay on OVCAR-4 ovarian, 0.0912 µM. Also, the GI50 in the assay on OVCAR-8 ovarian is 0.29 µM; with SK-MEL-2 melanoma, 0.0534 µM; in the assay on SK-OV-3 ovarian, 0.314 µM. Besides, the TGI with A549 NSCLC amounted to 2.18 µM; in the assay with EKVX NSCLC, 1.93 µM; with HS 578T breast, 3.41 µM; with M14 melanoma, 2.08 µM; in the assay with OVCAR-4 ovarian, 0.257 µM; in the assay on OVCAR-8 ovarian, 3.62 µM. Moreover, the results for the TGI with SK-MEL-2 melanoma and in the assay on SK-OV-3 ovarian were 1.29 µM and 1.92 µM, respectively.
For the compound `Fc1ccc2[nH]cc(SSc3c[nH]c4ccc(F)cc34)c2c1`, the GI50 with A549 NSCLC was 4.98 µM; in the assay on EKVX NSCLC, 3.03 µM; in the assay on HS 578T breast, 4.22 µM; in the assay with M14 melanoma, 5.29 µM; with MOLT-4 leukemia it was 2.71 µM; in the assay on NCI-H522 lung, 2.48 µM. The GI50 is 3.87 µM in the assay with OVCAR-4 ovarian, 5.73 µM in the assay with OVCAR-8 ovarian, 3.62 µM in the assay with SK-MEL-2 melanoma and 6.13 µM with SK-OV-3 ovarian. Besides, the TGI in the assay on A549 NSCLC was 87.7 µM; with EKVX NSCLC it was 15.7 µM; in the assay on HS 578T breast it was 31.1 µM; in the assay on M14 melanoma, above 100 µM; in the assay on MOLT-4 leukemia it was 33.4 µM; in the assay with NCI-H522 lung, 7.67 µM. For the same compound, the TGI in the assay on OVCAR-4 ovarian was found to be 18.2 µM; with OVCAR-8 ovarian, 42.8 µM; with SK-MEL-2 melanoma, 17 µM; in the assay with SK-OV-3 ovarian, 22.8 µM.
